This data set is described as follows: recombinant barcode read abundance after kanamycin selection (control-corrected) (log10(CPM+1)); higher = more efficient recombination; sequences stand for … in AGTGCAGAGAAAATCGGCCAGTTTTCTCTGCCTGCAGTCCGCATGCCGT…AGATTTATGCAGCGGACTGCCTTTCTCCCAAAGTGATAAACCGGACAGTATCATGGACCGGTTTTCCCGGTAATCCGTATTTGCAAGGTTGGTTTCACT; site = the 11-nt target. The method in brief: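 For this pooled screen, each oligo contained a promoter, a target, a barcode and the J23119-driven first 104 bases of the bridge RNA. Gibson cloning placed it into a vector supplying the remaining 73 bp and a T7-inducible recombinase, and the pool was co-electroporated into E. coli with a donor plasmid. Recombination efficiency is derived from barcode counts per million at recombinant junctions after averaging and control correction, and is expressed on a log scale as log10(CPM+1), with selection on chloramphenicol/ampicillin/kanamycin plus 0.1 mM IPTG against a chloramphenicol/ampicillin LB agar control.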
As to “GTCTATGCTTGGGTTCTAACCTGTTGCCT (site GTCTATGCTAG)”, the “recombinant barcode read abundance (log10)” value turned out to be 0.0906.

“GTCTCAACTTGGGTTCTAACCTGTTGCCT (site GTCTCAACTAG)”: the “recombinant barcode read abundance (log10)” value was 0.604. In the case of “GTCTCAACTTGGGTTCTAACCTGTTGCCT (site TTCTGAACTAG)” it was 0.0305.

With “GTCTCATCTTGGGTTCTAACCTGTTGCAT (site AGTATCCCTCG)”, the “recombinant barcode read abundance (log10)” value is 0.0153. In the case of “GTCTCATCTTGGGTTCTAACCTGTTGCAT (site GTCTCATCTAT)” it was 0.362; in that of “GTCTCTACTTGGGTTCTAACCTGTTGCGG (site GTCGCTACTCC)”, 0; in that of “GTCTCTACTTGGGTTCTAACCTGTTGCGG (site GTCTCTACTCC)”, 0.00855.

Consider “GTCTCTCCTTGGGTTCTAACCTGTTGCAG (site AAGGGCTCTAA)”, for which the “recombinant barcode read abundance (log10)” value amounted to 0.0245.

As for “GTCTCTCCTTGGGTTCTAACCTGTTGCAG (site GTCTCTCCTCT)”, the “recombinant barcode read abundance (log10)” value came to 0.0635. Consider “GTCTCTCCTTGGGTTCTAACCTGTTGCCG (site GTCTCTCCTCG)”, for which the “recombinant barcode read abundance (log10)” value was 0.0734.

Regarding “GTCTCTCCTTGGGTTCTAACCTGTTGCCG (site GTGTCTCCTCG)”, the “recombinant barcode read abundance (log10)” value was 0.0724. For the sequence “GTCTGATCTTGGGTTCTAACCTGTTGCCT (site GTCTAATCTAG)”, the “recombinant barcode read abundance (log10)” value was 0.0854. Consider “GTCTGATCTTGGGTTCTAACCTGTTGCCT (site GTCTCATCTAG)”, for which the “recombinant barcode read abundance (log10)” value is 0.113. As to “GTCTGATCTTGGGTTCTAACCTGTTGCCT (site GTCTGATCTAG)”, the “recombinant barcode read abundance (log10)” value came out at 0.97.

With “GTCTGATCTTGGGTTCTAACCTGTTGCCT (site GTCTTATCTAG)”, the “recombinant barcode read abundance (log10)” value is 0.186. “GTCTGCCCTTGGGTTCTAACCTGTTGCCT (site GACTGCCCTAG)”: the “recombinant barcode read abundance (log10)” value was found to be 0.181. For “GTCTGCCCTTGGGTTCTAACCTGTTGCCT (site GCCTGCCCTAG)” the value was 0.191; for “GTCTGCCCTTGGGTTCTAACCTGTTGCCT (site GGCTGCCCTAG)”, 0.239. On to “GTCTGCCCTTGGGTTCTAACCTGTTGCCT (site GTCTGCCCTAG)”, for which the “recombinant barcode read abundance (log10)” value came out at 1.73.

Consider “GTCTTAACTTGGGTTCTAACCTGTTGCCG (site GTCTTAACTCG)”, for which the “recombinant barcode read abundance (log10)” value is 0.338. As for “GTCTTAACTTGGGTTCTAACCTGTTGCCG (site GTCTTGACTTG)”, the “recombinant barcode read abundance (log10)” value worked out at 0.0525. For “GTGAACTCTTGGGTTCTAACCTGTTGCCT (site GTAAACTCTAG)” the value was 1.56; for “GTGAACTCTTGGGTTCTAACCTGTTGCCT (site GTCAACTCTAG)”, 0.0453; for “GTGAACTCTTGGGTTCTAACCTGTTGCCT (site GTGAACTCTAG)”, 1.85. “GTGAACTCTTGGGTTCTAACCTGTTGCCT (site GTTAACTCTAG)”: the “recombinant barcode read abundance (log10)” value worked out at 0.542. For “GTGAGATCTTGGGTTCTAACCTGTTGCCT (site GTGAGATCTAG)”, the “recombinant barcode read abundance (log10)” value came to 1.06. In the case of “GTGAGATCTTGGGTTCTAACCTGTTGCCT (site GTGGAATCTAG)” it was 0.079; in that of “GTGAGCCCTTGGGTTCTAACCTGTTGCCG (site GTGAGCCCTCG)”, 1.01. For “GTGAGCCCTTGGGTTCTAACCTGTTGCCG (site GTGCGCTCTCG)” the value was 0.0474.

For the sequence “GTGAGTCCTTGGGTTCTAACCTGTTGCGG (site GTAAGTCCTTC)”, the “recombinant barcode read abundance (log10)” value amounted to 0.24. “GTGAGTCCTTGGGTTCTAACCTGTTGCGG (site GTGAGTCCTCC)”: the “recombinant barcode read abundance (log10)” value was found to be 2.42. As to “GTGATGTCTTGGGTTCTAACCTGTTGCCT (site GAGATGTCTAG)”, the “recombinant barcode read abundance (log10)” value was found to be 0.701.

The values are drawn from the supplement of paper PMC11208160.
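Also: IS621 recombinase and bridge RNA in Escherichia coli cells.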
